Results reported in article PMC7008132 (European journal of medicinal chemistry, 2019).

Columns and labels:
[1] = target: human MDM2 (residues 1–118) (Homo sapiens, UniProt Q00987); assay: Fluorescence polarization; details: fluorescence polarization assay; qualitative statement
[2] = system: p53-wild-type SJSA-1 and U-2 OS cells; details: 24 h treatment, nutlin-3a 5 μM positive control
HCT 116 cells = assay: FITC-Annexin V/propidium iodide apoptosis analysis; details: HCT 116 (p53-wild-type); 72 h; Annexin V/PI flow cytometry
[3] = Stability of compound in solution; format: physicochemical; details: while in solution

Structure (SMILES) | MDM2 binding activity in words [1] | also measured
O=CN(Cc1ccc(OCc2ccc(F)cc2)cc1)C(C(=O)NC12CC3CC(CC(C3)C1)C2)c1c(C(=O)O)[nH]c2cc(Cl)ccc12 (stereo not shown) [compound 17, 3-(2-((3s,5s,7s)-adamantan-1-ylamino)-1-(N-(4-((4-fluorobenzyl)oxy)benzyl)formamido)-2-oxoethyl)-6-chloro-1H-indole-2-carboxylic acid] | almost in loss of activity | –
Cn1c(C(=O)O)c(C(C(=O)NC(C)(C)C)N(C=O)Cc2ccc(OCc3ccccc3Br)cc2)c2ccc(Cl)cc21 (stereo not shown) [compound 9, 3-(1-(N-(4-((2-bromobenzyl)oxy)benzyl)formamido)-2-(tert-butylamino)-2-oxoethyl)-6-chloro-1-methyl-1H-indole-2-carboxylic acid] | total loss of activity | –
CC(C)(C)NC(=O)C(c1cccc(Cl)c1)N(C=O)Cc1ccc(Cl)cc1 (stereo not shown) [compound 11, N-(tert-butyl)-2-(N-(4-chlorobenzyl)formamido)-2-(3-chlorophenyl)acetamide] | no binding | –
CC(C)(C)NC(=O)C(c1ccc(Cl)cc1)N(C=O)Cc1ccc(OCc2ccc(Cl)c(Cl)c2)cc1 (stereo not shown) [compound 10, N-(tert-butyl)-2-(4-chlorophenyl)-2-(N-(4-((3,4-dichlorobenzyl)oxy)benzyl) formamido)acetamide] | no binding | –
COc1ccc(C2=N[C@@H](c3ccc(Cl)cc3)[C@@H](c3ccc(Cl)cc3)N2C(=O)N2CCNC(=O)C2)c(OC(C)C)c1 [Nutlin-3a] | – | Induction of MDM2 and p21 expression [2]: potent induction of MDM2 and p21
CC(C)(C)NC(=O)[C@H](c1c(C(=O)O)[nH]c2cc(Cl)ccc12)N(C=O)Cc1ccc(OCc2ccccc2Br)cc1 [(−)-6m] | – | Induction of apoptosis (HCT 116 cells): induced apoptosis in p53-wild-type HCT 116 cells, comparable to nutlin-3a
CC(C)(C)NC(=O)C(c1c(C(=O)O)[nH]c2cc(Cl)ccc12)N(C=O)Cc1ccc(NCc2ccc(Br)cc2)cc1 (stereo not shown) [compound 8, 3-(2-(tert-butylamino)-1-(N-(4-((4-bromobenzyl)amino)benzyl)formamido)-2-oxoethyl)-6-chloro-1H-indole-2-carboxylic acid] | – | Stability in solution [3]: susceptible to degradation
